Measurements: US20060275856A1, “Method for analyzing cell free notch cleavage and method for drug screening” (OSAKA INDUSTRIAL PROMOTION ORGANIZATION, priority 2003, published 2006)
Each block holds one compound with its values, some of them ahead of it.

Key:
presenilin/γ-secretase [1] = biological target: T1, presenilin/γ-secretase (Homo sapiens, UniProt P49768); test: Multiple substrate cell-free assay system combining βAPP and Notch-1 (IP/MALDI-TOF MS of Aβ, AICD, F-Nβ, NICDΔC); assay type: biochemical
T1 construct: A crude purified membrane fraction of K293 cells co-expressing F-NEXTΔC and swβAPP; endogenous in cells; host or cells: K293 (human embryonic kidney 293) cells co-expressing F-NEXTΔC and swβAPP; crude membrane fraction (CMF)
Method: In the case of cell-free γ-secretase assay, MS washing buffer composed of 4 time amount or more of 0.1% n-octylglucoside, 140 mM NaCl, 10 mM Tris (pH 8.0) and 0.025% sodium azide was added to an S1 or S2 fraction which was the supernatant of ultracentrifugation after the assay. The mixture was immunoprecipitated at 4° C. for 4 hours using 6636, 6618, 4G8 or M2 agarose. After the immunoprecipitation, the precipitate was washed three times at 4° C. for 10 minutes using the MS washing buffer. The precipitate was washed once more with 10 mM Tris (pH 8.0) containing 0.025% sodium azide, and then simply washed once more with water. A peptide bound to the specific antibody in the precipitate consequently obtained was eluted with TFA/acetonitrile/water (TFA: acetonitrile: water=1:20:20) saturated with α-cyano-4-hydroxy cinnamic acid. The solubilized sample was dried on a stainless plate, and analyzed by MALDI-TOF MS. MS peaks were calibrated by angiotensin (Sigma) and insulin β chain (Sigma).
Human embryonic kidney 293 cells (K293 cells) in which F-NEXTΔC and Sweden type mutant βAPP (swβAPP) had been constitutively co-expressed were made by transfecting with the Sweden type mutant βAPP using Lipofectamine 2000 (Invitrogen), selecting by G418 and subsequently, transfecting the cells expressing βAPP with F-NEXTΔC. It was confirmed first that F-NEXTΔC and swβAPP had been expressed in the lysate of this cell, and simultaneously that F-Nβ and Aβ had been released in the culture supernatant (FIG. 5A to 5C). The composition of F-Nβ and Aβ molecular species were examined and it was confirmed that they were not inconsistent with previous reports (results are not shown).
A crude purified membrane fraction of K293 cells co-expressing F-NEXTΔC and swβAPP, pretreated with 100 nM of L685,458 or 100 nM of DAPT for 2 hours before extracting the membrane fraction was used. The S1-40 min fraction was collected from this crude purified membrane fraction. The precipitate fraction after collecting the S1-40 min fraction was resuspended in the reaction buffer, and then sonicated for a short time. Subsequently the fraction was centrifuged at 100,000×g for 15 minutes to collect the supernatant fraction as the S2-40 min fraction.
The fractions were immunoprecipitated with the antibody specific for each fragment (4G8 for Aβ, 6618 for AICD, M2 agarose for F-Nβ and […] for NICDΔC), and analyzed using the MALDI-TOF mass analyzer (FIG. 8). NICDΔC and AICD de novo produced were identified in the S1-40 min fraction. F-Nβ and Aβ were identified in the S2-40 min fraction (FIG. 8). Even when the change was added to the multiple substrate cell-free assay system combining βAPP and Notch-1, the diversity in the proteolytic sites by the presenilin/γsecretase was conserved.
The cells co-expressing F-NEXTΔC and swβAPP were cultured up to the confluent phase, and treated with the γ-secretase inhibitor at each concentration for 3 hours. As the γ-secretase inhibitor, L685,458 which was a transition-state analogue which binds to an active center of the presenilin/γ-secretase and DAPT which was not the transition-state analogue were used. The cells after the treatment were washed twice with ice-cooled PBS to collect. These cells were lysed and homogenated to extract CMF. Subsequently, this membrane fraction was suspended in alkaline washing buffer and left stand at 4° C. for 30 minutes. Then, the resuspension and the centrifugation were repeated three times using the reaction buffer to wash out the alkaline washing buffer. It appears that most γ-secretase inhibitor contained in CMF was washed out until this process. Finally, CMF was suspended once more in the reaction buffer, and the cell-free reaction was performed. The amounts of AICD and NICDΔC in the S1-40 min fraction and the amounts of Aβ and Nβ in the S2-40 min fraction were semi-quantified from relative heights of MALDI-TOF MS peaks, and evaluated by four scales of −, +, ++ and +++.

presenilin/γ-secretase [2] = biological target: T1, presenilin/γ-secretase; test: as above; assay type: biochemical; settings: cells pretreated at 1 μM and further 1 μM added in all buffers including homogenate and reaction buffer
presenilin/γ-secretase [3] = biological target: T1, presenilin/γ-secretase; test: Pulse-chase experiment: secretion of F-Nβ from K293 cells expressing F-NEXTΔC or F-NEXT; assay type: cell-based; settings: 1 μM, pretreating for 2 hours (FIG. 4D)
Method: In order to determine whether an N terminal fragment (NTF: F-Nβ) was released from the cells which had expressed F-NEXTΔC or F-NEXT as a result of proteolysis by presenilin/γ-secretase, the cells (K293 cells) which had stably expressed F-NEXTΔC or F-NEXT were cultured in a 10 cm dish up to a confluent phase. The cells were cultured in DMEM solution deprived of methionine (obtained by modifying a commercially available one from Gibco) for 45 minutes to be starved with methionine. Subsequently, the medium was replaced with the same DMEM solution deprived of methionine, and simultaneously the cells were metabolically pulse-labeled with 300 μCi of [^35S]-methionine/cysteine (Pro-mix, Amersham) for 30 minutes. Then the cells were chased in 10% FCS/DMEM for 2 hours.
After termination of a chase period, the medium was collected and immediately placed on ice. Then cell debris was eliminated by centrifuging at 3,000×g. Subsequently, a protease inhibitor cocktail (1:1000, Sigma) and 0.025% sodium azide were added. The sample was immunoprecipitated with 4G8 antibody or anti-FLAG-M2-agarose (Sigma) overnight, and a precipitate was washed three times with RIPA buffer containing 0.1% SDS, 0.5% deoxycholic acid and 1% Triton X-100. Subsequently, SDS-PAGE was performed using 10 to 20% gradient gel of Tris-tricine (Invitrogen). […]

[4] = pretreated at 1 μM, thoroughly washed out

FLAG-NEXT, sequence (chain, as listed by the source): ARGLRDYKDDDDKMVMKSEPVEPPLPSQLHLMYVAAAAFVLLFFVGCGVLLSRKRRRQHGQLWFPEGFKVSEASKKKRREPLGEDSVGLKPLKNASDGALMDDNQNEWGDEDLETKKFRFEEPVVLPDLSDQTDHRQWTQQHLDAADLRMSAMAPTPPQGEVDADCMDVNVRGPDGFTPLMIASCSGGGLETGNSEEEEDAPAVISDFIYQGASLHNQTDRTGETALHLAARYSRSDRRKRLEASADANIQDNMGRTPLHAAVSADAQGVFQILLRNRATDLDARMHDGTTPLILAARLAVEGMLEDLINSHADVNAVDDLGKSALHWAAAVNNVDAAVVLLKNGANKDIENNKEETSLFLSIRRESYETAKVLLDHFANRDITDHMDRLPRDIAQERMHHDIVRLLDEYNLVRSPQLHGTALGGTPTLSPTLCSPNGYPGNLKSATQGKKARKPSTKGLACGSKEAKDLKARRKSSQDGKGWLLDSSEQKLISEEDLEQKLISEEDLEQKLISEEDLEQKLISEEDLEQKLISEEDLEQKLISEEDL

action on γ49 and corresponding S3 cleavage (presenilin/γ-secretase [1]): less sensitively | action upon γ40 and corresponding S4 cleavage (presenilin/γ-secretase [1]): acted sensitively | effects on the four fragments compared with L685,458 (presenilin/γ-secretase [1]; same pretreatment experiment (FIGS. 9A and 9B)): extremely similar
Compound: C[C@H](NC(=O)Cc1cc(F)cc(F)c1)C(=O)N[C@H](C(=O)OC(C)(C)C)c1ccccc1 [DAPT]

production of F-Nβ, Aβ, NICDΔC and AICD (all of four fragments) (presenilin/γ-secretase [2]): not observed at all | secretion of F-Nβ (presenilin/γ-secretase [3]): almost completely inhibited | action on γ49 and corresponding S3 cleavage (presenilin/γ-secretase [1]): less sensitively | action upon γ40 and corresponding S4 cleavage (presenilin/γ-secretase [1]): acted sensitively | Aβ/Nβ, γ cleaved NTF (S4/γ40 cleavage) (presenilin/γ-secretase [1]; [4]): not observed | de novo production of AUCD/NICD which was γ cleaved CTF (S3/γ49 cleavage) (presenilin/γ-secretase [1]; [4]): recognized | peak heights of four fragments (presenilin/γ-secretase [1]; pretreated with 10 nM): maximum on average | de novo production of F-Nβ/Aβ (presenilin/γ-secretase [1]; pretreatment concentration decreased to 100 nM and 10 nM): recovered
Compound: CC(C)C[C@H](NC(=O)[C@H](Cc1ccccc1)C[C@@H](O)[C@H](Cc1ccccc1)NC(=O)OC(C)(C)C)C(=O)N[C@@H](Cc1ccccc1)C(N)=O [L685,458]

Compound: PS1 D385N, dominant negative mutant of presenilin, stably expressed in K293 cells
NICD production and decrease of the F-NEXT derivative after 2 hours' chase (F-NEXT V1744G): not only the NICD production but also the decrease of F-NEXT and its derivatives were not observed after 2 hours' chase | NICD production and decrease of F-NEXT after 2 hours' chase (FLAG-NEXT): not only the NICD production but also the decrease of F-NEXT and its derivatives were not observed after 2 hours' chase | NICD production and decrease of the F-NEXT derivative after 2 hours' chase (F-NEXT V1744L): not only the NICD production but also the decrease of F-NEXT and its derivatives were not observed after 2 hours' chase

Compound: wild type PS1 (presenilin), stably expressed in K293 cells
degradation of the F-NEXT derivative during 2 hours' chase (F-NEXT V1744G): F-NEXT V1744G and F-NEXT V1744L in the background of wild presenilin were degraded and their amounts were decreased during 2 hours' chase as with F-NEXT | degradation of the F-NEXT derivative during 2 hours' chase (F-NEXT V1744L): F-NEXT V1744G and F-NEXT V1744L in the background of wild presenilin were degraded and their amounts were decreased during 2 hours' chase as with F-NEXT
